The Ki is a measure of affinity in units of concentration, obtained from inhibition or displacement. A lower Ki goes with a stronger hold on the target. For orientation: inhibition means the relative decrease from the control value, in per cent. In general, IC50 refers to the concentration that gives 50% inhibition. Low readings indicate higher potency, high ones lower potency.

The source made the active and inactive calls. The rule behind the calls is not given here.

The results in this text go back to ChEMBL document CHEMBL1142213, “Mechanism of antimalarial action of the synthetic trioxolane RBX11160 (OZ277)” (Antimicrob Agents Chemother, 2007).

A short description of assay [1]: Inhibition of Plasmodium berghei SERCA.
Assay [2] in a line: Inhibition of Plasmodium falciparum ATP6 expressed in Xenopus laevis oocytes. The settings on record: oocyte. It counts as cell-based.
The species entered for assay [3] is Oryctolagus cuniculus. Kind of assay: Inhibition of rabbit muscle SERCA at 10 uM.
The test system of assay [4] is Oocyte. Kind of assay: Inhibition of Plasmodium falciparum HT expressed in Xenopus laevis oocytes assessed as D-[U-14C]glucose uptake at 50 uM. In kind it is cell-based.
The subject of assay [5] is Oocyte. Kind of assay: Inhibition of Plasmodium falciparum ATP6 expressed in Xenopus laevis oocytes at 50 uM. It counts as cell-based.
The species entered for assay [6] is Oryctolagus cuniculus. In words: Inhibition of rabbit muscle SERCA at 100 uM.
Assay [7] relates to Plasmodium falciparum. In words: Antimalarial activity against Plasmodium falciparum NF54 within 48 hrs. In kind it is functional, organism-based. The settings on record: NF54, 48 h.
Assay [8] relates to Oocyte. In words: Abrogation of Plasmodium falciparum ATP6 inhibition expressed in Xenopus laevis oocytes at 10 uM in presence of 100 uM desferioxamine. In kind it is cell-based.

As for `C[C@@H]1CC[C@H]2[C@@H](C)C(=O)O[C@@H]3O[C@@]4(C)CC[C@@H]1[C@]32OO4` [ARTEMISININ], the inhibitory constant (Ki) in assay [1] was determined as 6 µM; in assay [2], 0.079 µM.

`C/C=C(/C)C(=O)O[C@H]1C(C)=C2[C@H]([C@@H]1OC(=O)CCCCCCC)[C@@](C)(OC(C)=O)C[C@H](OC(=O)CCC)[C@@]1(O)[C@H]2OC(=O)[C@@]1(C)O` displayed an inhibition in assay [3] of 75%.

As for `CC(C)(N)CNC(=O)C[C@H]1CC[C@@]2(CC1)OOC1(O2)C2CC3CC(C2)CC1C3` (some centres undefined), the result in assay [4] and in assay [8] was inactive. The result in assay [5] was Active. Also, the inhibition in assay [6] came out at 50%. Also, 0.0016 µM corresponded to half-maximal inhibition in assay [7] (IC50). In addition, the inhibitory constant (Ki) in assay [2] was 7.7 µM.
